Measurements reported in patent US7994219B2, “Approach to anti-microbial host defense with molecular shields with lipoxin compounds” (The Brigham and Women's Hospital, Inc., priority 2001, dated 2011).

Legend:
[1] = tested on: BPI; experiment: RT-PCR of BPI transcript in OKF6, T84 and Caco2 epithelial cells; type: cell-based, human
[2] = tested on: BPI; experiment: Semi-quantitative RT-PCR of BPI transcript in KB cells; type: cell-based, human
[3] = tested on: bacteria; experiment: Direct incubation of ATLa or anti-BPI with bacteria and colony counts; type: cell-based; conditions: direct incubation with bacteria, no epithelial cells; data not shown
[4] = tested on: Salmonella typhimurium; experiment: Bacterial killing assay: adherent Caco2 cells with Salmonella typhimurium (CFU); type: cell-based; conditions: Caco2 pre-exposure to 1 μM ATLa, 24 hr; killing over 60 min
Protocol: Salmonella typhimurium (strain 14028 from American Type Culture Collection, Rockville, Md.) were cultured and grown in Luria broth as previously described (22). In subsets of experiments, Enterococcus faecalis (strain PCI 1326 from American Type Culture Collection, Rockville, Md.) were cultured as previously described (23). Caco2 epithelial cells were grown to confluence of 60 mm petri dishes and exposed to indicated experimental conditions. Cells were washed once with HBSS, and washed bacteria were added to epithelial monolayers at a ratio of 50 bacteria per adherent epithelial cell. Incubations were allowed to proceed for 90 minutes or as indicated on a rotating platform. Parallel samples omitting epithelial cells were used as controls. Following incubation, supernatants were collected and epithelial cells were hypotonically lysed with 1 ml ice cold water. Bacteria were pelleted, dilutions of both pellets and supernatants were plated, incubated overnight at 37° C., and colony counts were performed. In subsets of experiments, anti-BPI antisera (1:300 in HBSS) or anti-BPI antisera pre-adsorbed with rBPI (1:300 in HBSS), as indicated, were added 30 minutes prior to incubation with bacteria. Data are presented as the mean±S.E.M. CFU.

[5] = tested on: BPI; experiment: Immunoprecipitation of biotinylated plasma membrane protein and avidin blot for surface BPI in T84 cells; type: cell-based, human; conditions: 1 μM ATLa, at 36 h
Protocol: Epithelial cells were grown to confluence on 45 cm^2 permeable supports, and exposed to ATLa or vehicle (0.01% EtOH), as indicated. Cells were washed extensively in HBSS, cooled to 4° C., and extracellular proteins were biotinylated (1 mM NHS-biotin (Pierce Chemical Co., Rockford, Ill.) in HBSS) as previously described (18). Plasma membranes were isolated using nitrogen cavitation (200 psi, 8 min., 4° C.) as previously described (18). Recombinant human BPI (100 ng/ml, was directly biotinylated and excess biotin was removed by multiple washes on a 5 kD cut-off membrane filter (Amicon, Beverly Mass.). Fractions were pre-cleared with 50 μl pre-equilibrated protein-G sepharose (Pharmacia, Uppsala Sweden). Immunoprecipitation of BPI was performed with goat polyclonal anti-BPI followed by addition of 50 μl pre-equilibrated protein-G sepharose and overnight incubation. Washed immunoprecipitates were boiled in non-reducing sample buffer (2.5% SDS, 0.38 M Tris pH 6.8, 20% glycerol, and 0.1% bromophenol blue), resolved by non-reducing SDS-PAGE (18% polyacrylamide gel), transferred to nitrocellulose, and blocked overnight in blocking buffer. Biotinylated proteins were labeled with streptavidin-peroxidase (Pierce Chemical Co., Rockford, Ill.) and visualized by enhanced chemiluminescence (ECL; Amersham, Arlington Heights, Ill.).

[6] = tested on: BPI; experiment: Quantitative genechip microarray transcriptional profile of KB epithelial cells exposed to ATLa; type: cell-based, human; conditions: 1 μM ATLa
[7] = tested on: BPI; experiment: Confocal microscopy of surface BPI on non-permeabilized Caco2 cells; type: cell-based, human; conditions: 1 μM for 24 hr
Protocol: OKF6 or Caco2 cells were grown to confluence on acid washed 12 mm glass coverslips. Monolayers were exposed to indicated experimental conditions, washed once in phosphate buffered saline, and fixed for 10 minutes at room temperature in 1% paraformaldehyde in cacodylate buffer (0.1M sodium cacodylate; pH 7.4, 0.72% sucrose). After washing twice with PBS, the cells were incubated for 1 hour with rabbit polyclonal BPI antisera (1:300 dilution) or control sera (equivalent dilution depleted of specific antibody through 3 consecutive adsorptions with sepharose beads covalently linked to rBPI via cyanogens bromide coupling, kit from Pierce Chemical Co., Rockford, Ill.). After washing, the monolayers were incubated with goat anti-rabbit Oregon Green (1 μg/ml, Molecular Probes, Eugene, Oreg.). Cells were imaged on a BioRad MRC-600 confocal fluorescence microscope.

pertussis toxin [reference compound]
decrease in BPI induction by ATLa ([1]; Caco2 pre-exposure to pertussis toxin 1 μM, 30 min, ATLa 1 μM, 18 h): 65%

CCCCCC/C=C/C=C/C=C/C=C/[C@@H](O)[C@@H](O)CCCC(=O)O [15-deoxy-LXA4, reference compound]
induction of BPI at the mRNA level ([2]; epithelial exposure to similar concentrations as ATLa, data not shown): no induction

O=C(O)CCC[C@H](O)[C@H](O)/C=C/C=C/C=C\C=C\[C@@H](O)COc1ccc(F)cc1 [ATLa, 15-epi-16-(para-fluoro)-phenoxy-LXA4]
direct bactericidal activity or non-specific agglutination [3]: not explained by bactericidal activity or non-specific agglutination | BPI induction relative to β-actin ([1]; OKF6, T84 and Caco2 cells, 1 μM, 26 cycles of PCR): prominent pattern of time-dependent BPI induction | increase in killing of S. typhimurium [4]: ~60% | maximal increase of BPI transcript relative to β-actin by densitometry ([2]; KB cells, 1 μM, 8 h, compared to vehicle control): 4.3 fold | EC50 ([2]; KB cells, 8 hr, 28 cycles of PCR, approximate, read-out: EC50 of BPI transcript induction (dose response)): ~50 nM | maximal increase of ~55 kDa surface protein consistent with BPI by densitometry [5]: 12.5 fold | BPI mRNA increase over control (microarray) ([6]; 4 hrs exposure): 3.2 fold | BPI mRNA increase over control (microarray) ([6]; 8 hrs exposure): 2.9 fold | surface-bound BPI expression [7]: increased expression
